≈ marks a conversion by molar mass, not a printed value.
Assays:
physchem [1] = settings: octan-1-ol/water
physchem [2] = settings: pH 7.4 buffer

Compound	logD (physchem [1]; pH 7.4, LogD7.4)	solubility thermodynamic (physchem [2])	logD (physchem [1]; pH 7.4)
O=C(c1ccc(F)cc1)C1CCN(C(=O)NCc2ccccc2)CC1	3.15	10 µM (≈ 3.4 µg/mL)	–
Cn1sc(NCc2ccccc2)nc1=O	1.2	1510 µM (≈ 335 µg/mL)	–
Nc1ncc(-c2cnn(C3CCNCC3)c2)cc1-c1nc2ccccc2o1	1.85	2.3 µM (≈ 0.829 µg/mL)	–
CC(C)Cn1c(=O)n(C)c(=O)c2c(C(=O)N3CC[C@@H](O)C3)c(Cc3ccccc3C(F)(F)F)sc21	2.74	550 µM (≈ 280 µg/mL)	–
CC(C)(C(=O)Nc1nnc(C(=O)Nc2ccc(N3CCOCC3)cc2)o1)c1ccc(Cl)cc1	2.96	200 µM (≈ 93.8 µg/mL)	–
Cc1cc(C)cc(-c2[nH]c3sc(C(C)(C)C(=O)N4C5CCC4CC5)cc3c2CCN2CCN(CC(=O)N(C)C)CC2)c1	4.13	100 µM (≈ 59 µg/mL)	–
c1ccc(Nc2ccccc2)cc1 [DIPHENYLAMINE]	3.2	178 µM (≈ 30.1 µg/mL)	–
CSc1ccc(C(=O)C(C)(C)N2CCOCC2)cc1	–	52.5 µM (≈ 14.7 µg/mL)	3.49
O=c1[nH][nH]c(=O)c2c1[nH]c1cc(Cl)cc(Cl)c12	1.02	57.5 µM (≈ 15.5 µg/mL)	–
COc1ccccc1Nc1cc(Oc2cc(C)c(C)nc2-c2ccccn2)ccn1	3.37	22.9 µM (≈ 9.12 µg/mL)	–
CS(=O)(=O)c1cccc(Nc2nccc(Nc3cccc4ccoc34)n2)c1	3.52	5.4 µM (≈ 2.05 µg/mL)	–
O=C(/C=C/Sc1nc[nH]n1)c1ccc(Cl)cc1	3.1	35.5 µM (≈ 9.43 µg/mL)	–
c1ccc(Nc2ccnc(Nc3ccccc3)n2)cc1	4.06	15.1 µM (≈ 3.96 µg/mL)	–
O=c1[nH]c2cc(Cl)ccc2c(O)c1-c1cccc(Oc2ccccc2)c1	2.96	2.5 µM (≈ 0.909 µg/mL)	–
Cc1cc(Nc2nc(NCc3cc(C)no3)ncc2Br)[nH]n1	2.92	61.7 µM (≈ 22.5 µg/mL)	–
Cc1cc(=O)oc2cc3c(cc12)CCCN3	–	13.8 µM (≈ 2.97 µg/mL)	2.7
CCCSc1nc(N2CCC(C(=O)O)CC2)ccc1C(=O)NC1CCCCC1	1.6	309 µM (≈ 125 µg/mL)	–
COc1ccc(-c2cc3c(N[C@H]4CCCNC4)ncc(C(N)=O)c3s2)cc1	1.82	1050 µM (≈ 401 µg/mL)	–
O=C1COC2(CCN(S(=O)(=O)c3ccc(-c4ccc5cccnc5c4)cc3)CC2)CN1C1CC1	3.24	1.9 µM (≈ 0.907 µg/mL)	–
O=C(Nc1nc2c(=O)[nH]cnc2s1)c1ccccc1	1.94	7.4 µM (≈ 2.01 µg/mL)	–

Compound	logD (physchem [1]; pH 7.4, LogD7.4)	solubility thermodynamic (physchem [2])	logD (physchem [1]; pH 7.4)
O=C(Cc1cc(Nc2ncnc3cc(OCCCN4CCC[C@@H]4CO)ccc23)n[nH]1)Nc1cccc(F)c1F	2.06	141 µM (≈ 76 µg/mL)	–
c1ccc(Nc2ccnc3ccccc23)cc1	2.78	324 µM (≈ 71.3 µg/mL)	–
COc1ccc(-c2nc3n(c2Br)CCC3)cc1	3.3	25.1 µM (≈ 7.36 µg/mL)	–
CCN1C(=O)N(C)c2cnc(Nc3ccc(C(=O)NC4CCN(C)CC4)cc3OC)nc2N1C1CCCC1	2.75	603 µM (≈ 315 µg/mL)	–
Cc1ccc(NC(=O)c2cccc(N3CCOCC3)c2)cc1NC(=O)c1ccc(OCc2ccncc2)cc1	3.2	0.5 µM (≈ 0.261 µg/mL)	–
Cc1ccnc2nc(C(=O)Nc3nccs3)nn12	–	339 µM (≈ 88.2 µg/mL)	0.31
O=C(NCC(=O)N(CCO)c1ccccc1)c1cc2cc(Cl)ccc2[nH]1	3.37	1.8 µM (≈ 0.669 µg/mL)	–
Cc1nc(C)c(-c2ccc([C@H]3CC[C@@H](CC(=O)O)CC3)c(F)c2)nc1C(N)=O	1.2	759 µM (≈ 292 µg/mL)	–
Cc1c(CCC(=O)O)c[nH]c1/C=C1\C(=O)Nc2ccccc21	1.05	209 µM (≈ 61.9 µg/mL)	–
O=C(NCc1ccncc1)c1ccc(Oc2ccc(C#C[C@@]3(O)CN4CCC3CC4)cc2)cc1	–	107 µM (≈ 48.6 µg/mL)	2.31
O=C(Nc1ccc(N2CCOCC2)nc1)c1nnc(Nc2cccc(OCc3ccccn3)c2)o1	3.1	6.3 µM (≈ 2.98 µg/mL)	–
C[C@H](NC1=NC(=O)[C@@](C)(C(F)(F)F)S1)c1ccccc1F	3.1	219 µM (≈ 70.1 µg/mL)	–
Nc1nc(-c2ccccc2)cs1	2.43	832 µM (≈ 147 µg/mL)	–
COc1cc2ncnc(NCc3ccccc3)c2cc1OC	3.29	38.9 µM (≈ 11.5 µg/mL)	–
Cc1ccc(NC(=O)c2ccnc(N3CCOCC3)c2)cc1Nc1ccnc(OCC(C)(C)CN(C)C)n1	2.2	490 µM (≈ 255 µg/mL)	–
CC(C)C[C@H](NC(=O)N1CCOCC1)C(=O)N[C@H](/C=C/S(=O)(=O)c1ccccc1)CCc1ccccc1	3.4	17 µM (≈ 8.97 µg/mL)	–
CCn1c(=O)ccc2cc(COc3cc(F)cc(C4(OC)CCOCC4)c3)ccc21	3.89	1.7 µM (≈ 0.7 µg/mL)	–
CNC(=O)Nc1nc2ccc(-c3cncc(S(=O)(=O)NC(C)(C)C)c3)cn2n1	1.58	87.1 µM (≈ 35.1 µg/mL)	–
COc1cc2ncc(C(N)=O)c(Nc3cccc(Cl)c3)c2cc1OC	3.5	10 µM (≈ 3.58 µg/mL)	–
COc1cc(N2CCN(C(C)=O)CC2)ccc1Nc1ncc(Cl)c(-c2cnc3c(CO)cccn23)n1	3.1	0.5 µM (≈ 0.254 µg/mL)	–

Compound	logD (physchem [1]; pH 7.4, LogD7.4)	solubility thermodynamic (physchem [2])	logD (physchem [1]; pH 7.4)
COC(=O)COc1ccc(C(=O)Nc2ccc(F)cc2)cn1	2.43	55 µM (≈ 16.7 µg/mL)	–
Cc1sc(N)nc1-c1ccccc1	2.75	955 µM (≈ 182 µg/mL)	–
Cc1ccc(S(=O)(=O)Nc2c(C(=O)NC3CCCCC3)cnn2-c2ccccc2)cc1	0.8	490 µM (≈ 215 µg/mL)	–
CCc1cccc2c(C#N)cn(CC(=O)NCCOC)c12	1.95	37.2 µM (≈ 10.6 µg/mL)	–
Oc1ccc(-c2nc3ccc(O)cc3s2)cc1	3.65	27.5 µM (≈ 6.69 µg/mL)	–
CNc1ncc(C(=O)c2ccccc2)s1	2.36	724 µM (≈ 158 µg/mL)	–
NC1(Cc2ccc(Cl)cc2)CCN(c2ncnc3[nH]ccc23)CC1	2.72	339 µM (≈ 116 µg/mL)	–
O=C(NC1CCCCC1)C1CCCN(S(=O)(=O)c2cccs2)C1 (stereo not drawn)	2.93	4.2 µM (≈ 1.5 µg/mL)	–
CN(C)CC(O)COc1ccc(Nc2nccc(Nc3ccccc3C#N)n2)cc1 (stereo not drawn)	1.2	1100 µM (≈ 444 µg/mL)	–
COc1cc(CO)cc(N(C)c2ccnc(Nc3cc(N4CCOCC4)cc(N4CCOCC4)c3)n2)c1	3	195 µM (≈ 98.8 µg/mL)	–
O=C(CN1CCOCC1)Nc1ccc(-c2cccc3c(=O)cc(N4CCOCC4)oc23)cc1OCC1CC1	3.3	1.5 µM (≈ 0.779 µg/mL)	–
O=C(O)c1ccccc1Cn1nnc(-c2cccc(OCc3ccc4ccccc4n3)c2)n1	2.1	7.8 µM (≈ 3.41 µg/mL)	–
CCOC(=O)c1ccc(OCCC2CN(c3ccc(C)nn3)CCO2)cc1 (stereo not drawn)	2.7	15.8 µM (≈ 5.87 µg/mL)	–
COc1cc2ncnc(Nc3cccc(Cl)c3F)c2cc1CN1CCC[C@H]1CC(N)=O	2.64	234 µM (≈ 104 µg/mL)	–
CN(c1ccnc(Nc2cccc(S(C)(=O)=O)c2)n1)c1cccc2[nH]ncc12	3.21	13.5 µM (≈ 5.33 µg/mL)	–
O=C(Nc1ccccc1O)c1cc([N+](=O)[O-])ccc1Cl	2.49	53.7 µM (≈ 15.7 µg/mL)	–
CC(=O)N1CCN(c2ccc(NC(=O)c3nnc(Nc4ccccc4F)o3)cc2)CC1	2.51	6.2 µM (≈ 2.63 µg/mL)	–
O=C(COc1ccccc1)c1ccccc1	2.87	170 µM (≈ 36 µg/mL)	–
CCN(c1ccnc(Nc2cc(N3CCOCC3)cc(N3CCOCC3)c2)n1)c1cc(CO)ccc1C	3.8	72.4 µM (≈ 36.5 µg/mL)	–
